Values of other authors as cited in article PMC5096457 (Cell chemical biology, 2016).

Legend:
[1] = system: NIH 3T3 Src−/− cells overexpressing Src (Y529F); conditions: high micromolar concentrations; ref Georghiou et al., 2012
c-Kit = conditions: ref DiNitto et al., 2010

| Compound | global tyrosine phosphorylation [1] | fold increase in IC50 against activated kinase target (c-Kit) [fold] |
| --- | --- | --- |
| NC(=O)[C@@H]1CCCNC(=O)[C@H](Cc2ccc([N+](=O)[O-])cc2)NC(=O)[C@H](Cc2ccc(F)cc2)NC(=O)[C@H](CC2CCCCC2)NC(=O)/C=C/C(=O)N1 [MC25a] | decreased global tyrosine phosphorylation | – |
| CCN(CC)CCNC(=O)c1c(C)[nH]c(/C=C2\C(=O)Nc3ccc(F)cc32)c1C [sunitinib] | – | 300 |
